We go through 42 substances from US20170189507A1, “NOVEL PEPTIDES AND COMBINATION OF PEPTIDES FOR USE IN IMMUNOTHERAPY AGAINST VARIOUS CANCERS” (immatics biotechnologies GmbH, priority 2015, published 2017).

The target of one assay is HLA-A*02 (Homo sapiens, UniProt P04439, D140Y/D185E/D98H/E176V/E277Q/G131W/G231S/I119V/I121R/I166T/I218V/N151K/N90K/P208A/P217A/Q86G/Q94H/R138H/R169H). In words: MHC binding assay (UV-ligand exchange, beta2m ELISA), HLA-A*02. As to conditions: MHC class I binding score, peptide exchange yield. An excerpt:
(§1) Candidate peptides for T cell based therapies according to the present invention were further tested for their MHC binding capacity (affinity). The individual peptide-MHC complexes were produced by UV-ligand exchange, where a UV-sensitive peptide is cleaved upon UV-irradiation, and exchanged with the peptide of interest as analyzed. Only peptide candidates that can effectively bind and stabilize the peptide-receptive MHC molecules prevent dissociation of the MHC complexes. To determine the yield of the exchange reaction, an ELISA was performed based on the detection of the light chain ([…] of stabilized MHC complexes. The assay was performed as generally described in Rodenko et al. (Rodenko et al., 2006).
(§2) 96 well MAXISorp plates (NUNC) were coated over night with 2 ug/ml streptavidin in PBS at room temperature, washed 4× and blocked for 1 h at 37° C. in 2% BSA containing blocking buffer. Refolded HLA-A*02:01/MLA-001 monomers served as standards, covering the range of 15-500 ng/ml. Peptide-MHC monomers of the UV-exchange reaction were diluted 100 fold in blocking buffer. Samples were incubated for 1 h at 37° C., washed four times, incubated with 2 ug/ml HRP conjugated anti-β2m for 1 h at 37° C., washed again and detected with TMB solution that is stopped with […]. Absorption was measured at 450 nm. Candidate peptides that show a high exchange yield (preferably higher than 50%, most preferred higher than 75%) are generally preferred for a generation and production of antibodies or fragments thereof, and/or T cell receptors or fragments thereof, as they show sufficient avidity to the MHC molecules and prevent dissociation of the MHC complexes.

Another assay relates to CD8+ T cells. The experiment in a line: In vitro immunogenicity: T-cell priming with aAPCs loaded with peptide/MHC complexes and anti-CD28 antibody, pMHC multimer readout. The class given is cell-based, human. The note with it: for Wells positive [%]: in vitro immunogenicity of HLA class I peptides, peptide-specific multimer+ wells after aAPC priming of CD8+ T cells; for Wells (in vitro immunogenicity of HLA class I peptides): CD8+ T cells of healthy donors, three stimulation cycles, multimer staining, Table 19A. On the procedure:
In an aspect, the peptides are pre-screened for immunogenicity before being included in the warehouse. By way of example, and not limitation, the immunogenicity of the peptides included in the warehouse is determined by a method comprising in vitro T-cell priming through repeated stimulations of CD8+ T cells from healthy donors with artificial antigen presenting cells loaded with peptide/MHC complexes and anti-CD28 antibody.
In order to obtain information regarding the immunogenicity of the TUMAPs of the present invention, the inventors performed investigations using an in vitro T-cell priming assay based on repeated stimulations of CD8+ T cells with artificial antigen presenting cells (aAPCs) loaded with peptide/MHC complexes and anti-CD28 antibody.
In order to perform in vitro stimulations by artificial antigen presenting cells loaded with peptide-MHC complex (pMHC) and anti-CD28 antibody, the inventors first isolated CD8+ T cells from fresh HLA-A*02 leukapheresis products via positive selection using CD8 microbeads (Miltenyi Biotec, Bergisch-Gladbach, Germany) of healthy donors obtained from the University clinics Mannheim, Germany, after informed consent.
PBMCs and isolated CD8+ lymphocytes were incubated in T-cell medium (TCM) until use consisting of RPMI-Glutamax (Invitrogen, Karlsruhe, Germany) supplemented with 10% heat inactivated human AB serum (PAN-Biotech, Aidenbach, Germany), 100 U/ml Penicillin/100 μg/ml Streptomycin (Cambrex, Cologne, Germany), 1 mM sodium pyruvate (CC Pro, Oberdorla, Germany), 20 μg/ml Gentamycin (Cambrex). 2.5 ng/ml IL7 (PromoCell, Heidelberg, Germany) and 10 U/ml IL-2 (Novartis Pharma, Nurnberg, Germany) were also added to the TCM at this step.
Generation of pMHC/anti-CD28 coated beads, T-cell stimulations and readout was performed in a highly defined in vitro system using four different pMHC molecules per stimulation condition and 8 different pMHC molecules per readout condition.
The purified co-stimulatory mouse IgG2a anti human CD28 Ab 9.3 (Jung et al., 1987) was chemically biotinylated using Sulfo-N-hydroxysuccinimidobiotin as recommended by the manufacturer (Perbio, Bonn, Germany). Beads used were 5.6 μm diameter streptavidin coated polystyrene particles (Bangs Laboratories, Illinois, USA).
pMHC used for positive and negative control stimulations were A*0201/MLA-001 (peptide […] (SEQ ID NO. 303) from modified Melan-A/MART-1) and A*0201/DDX5-001 ([…] from DDX5, SEQ ID NO. 304), respectively.
800.000 beads/200 μl were coated in 96-well plates in the presence of 4×12.5 ng different biotin-pMHC, washed and 600 ng biotin anti-CD28 were added subsequently in a volume of 200 μl. Stimulations were initiated in 96-well plates by co-incubating […] CD8+ T cells with 2×10^5 washed coated beads in 200 μl TCM supplemented with 5 ng/ml IL-12 (PromoCell) for 3 days at 37° C. Half of the medium was then exchanged by fresh TCM supplemented with 80 U/ml IL-2 and incubating was continued for 4 days at 37° C. This stimulation cycle was performed for a total of three times. For the pMHC multimer readout using 8 different pMHC molecules per condition, a twodimensional combinatorial coding approach was used as previously described (Andersen et al., 2012) with minor modifications encompassing coupling to 5 different fluorochromes. Finally, multimeric analyses were performed by staining the cells with Live/dead near IR dye (Invitrogen, Karlsruhe, Germany), CD8-FITC antibody clone SK1 (BD, Heidelberg, Germany) and fluorescent pMHC multimers. For analysis, a BD LSRII SORP cytometer equipped with appropriate lasers and filters was used. Peptide specific cells were calculated as percentage of total CD8+ cells. Evaluation of multimeric analysis was done using the FlowJo software (Tree Star, Oregon, USA). In vitro priming of specific multimer+ CD8+ lymphocytes was detected by comparing to negative control stimulations.

The next assay deals with HLA-A*24. In words: MHC binding assay (UV-ligand exchange, beta2m ELISA), HLA-A*24. The note with it: MHC class I binding score, peptide exchange yield. Also noted: species or system human.
Description: as §1, §2
A general note: ELISA stands for enzyme-linked immunosorbent assay.

Consider “1 (LLYPEPWSV; listed as Homo sapiens) [compound 1]”, for which the Peptide exchange result in the assay with HLA-A*02 is listed as “++++ (>=75% = ++++)”.
On the same count and under the same terms, then “3 (KLEENGDLYL; listed as Homo sapiens) [compound 3]”, with “++++ (>=75% = ++++)”.
Consider “5 (GIVAHIQEV; listed as Homo sapiens) [compound 5]”, for which the “Wells positive [%]” value with CD8+ T cells is listed as “+ (<20% = +)”.
As for “14 (ILAKDLFEI; listed as Homo sapiens) [compound 14]”, the Peptide exchange result with HLA-A*02 is “++++ (>=75% = ++++)”.
“18 (ILLDLTDNRL; listed as Homo sapiens) [compound 18]”: the “Wells positive [%]” value with CD8+ T cells is reported as “+ (<20% = +)”.
Take “23 (SLFSDEFKV; listed as Homo sapiens) [compound 23]”: the “Wells positive [%]” value with CD8+ T cells is “++++ (>=70% = ++++)”.
With “26 (ALQEELTEL; listed as Homo sapiens) [compound 26]”, in the assay with CD8+ T cells, the “Wells positive [%]” value is reported as “+ (<20% = +)”.
“29 (YLLDPSITL; listed as Homo sapiens) [compound 29]”: the “Wells positive [%]” value in the assay on CD8+ T cells was “+ (<20% = +)”.
In the case of “31 (TITETTVEV; listed as Homo sapiens) [compound 31]”, in the assay with CD8+ T cells, the “Wells positive [%]” value is listed as “+ (<20% = +)”.
Still for that read-out and setting: as for “35 (FLLPFSTVYL; listed as Homo sapiens) [compound 35]”, the entry is “+ (<20% = +)”.
Take “90 (FLQDLEQRL; listed as Homo sapiens) [compound 90]”: the “Wells positive [%]” value in the assay with CD8+ T cells was “+ (<20% = +)”.
“141 (FLDKVLVAA; listed as Homo sapiens) [compound 141]”: the “Wells positive [%]” value with CD8+ T cells is “+ (<20% = +)”.
Regarding “149 (ILNTHITEL; listed as Homo sapiens) [compound 149]”, in the assay on CD8+ T cells, the “Wells positive [%]” value is “+ (<20% = +)”.
For the substance “158 (HYSQELSLLYL; listed as Homo sapiens) [compound 158]”, the Peptide exchange entry in the assay on HLA-A*24 is “++++ (>=75% = ++++)”. Besides, the “Wells positive [%]” value in the assay with CD8+ T cells is “+ (<20% = +)”.
Regarding “159 (LYNKGFIYL; listed as Homo sapiens) [compound 159]”, the Peptide exchange entry in the assay on HLA-A*24 was “++++ (>=75% = ++++)”. Besides, the “Wells positive [%]” value in the assay on CD8+ T cells was “++++ (>=70% = ++++)”.
Take “163 (DYLKGLASF; listed as Homo sapiens) [compound 163]”: the Peptide exchange result in the assay with HLA-A*24 is on record as “++++ (>=75% = ++++)”. The “Wells positive [%]” value in the assay on CD8+ T cells is reported as “+ (<20% = +)”.
On to “165 (DYTTWTALL; listed as Homo sapiens) [compound 165]”, for which the Peptide exchange result in the assay on HLA-A*24 is given as “++++ (>=75% = ++++)”. Further, the “Wells positive [%]” value with CD8+ T cells is given as “+ (<20% = +)”.
As for “167 (NYINRILKL; listed as Homo sapiens) [compound 167]”, in the assay on HLA-A*24, the Peptide exchange entry is recorded as “++++ (>=75% = ++++)”. In addition, the “Wells positive [%]” value in the assay on CD8+ T cells is “+ (<20% = +)”.
In the case of “196 (LYIDRPLPYL; listed as Homo sapiens) [compound 196]”, the “Wells positive [%]” value with CD8+ T cells was “++++ (>=70% = ++++)”.
On the same count and under the same terms, then “197 (EYSLFPGQVVI; listed as Homo sapiens) [compound 197]”, with “+ (<20% = +)”.
In the case of “204 (TYELRYFQI; listed as Homo sapiens) [compound 204]”, the Peptide exchange entry with HLA-A*24 is recorded as “++++ (>=75% = ++++)”. For the same substance, the “Wells positive [%]” value with CD8+ T cells was “+ (<20% = +)”.
Take “207 (AYVVFVSTL; listed as Homo sapiens) [compound 207]”: in the assay with CD8+ T cells, the “Wells positive [%]” value is reported as “+ (<20% = +)”.
Still for that read-out and setting: as for “218 (YYKSTSSAF; listed as Homo sapiens) [compound 218]”, the entry is “+ (<20% = +)”.
On the same count and under the same terms, then “230 (KLQNIMMLL; listed as Homo sapiens) [compound 230]”, with “++++ (>=70% = ++++)”.
Regarding “268 (QYLGQIQHI; listed as Homo sapiens) [compound 268]”, in the assay on CD8+ T cells, the “Wells positive [%]” value is recorded as “+ (<20% = +)”.
On the same count and under the same terms, then “269 (YFIDSTNLKTHF; listed as Homo sapiens) [compound 269]”, with “+ (<20% = +)”.
In the case of “277 (VYQGHTALL; listed as Homo sapiens) [compound 277]”, in the assay on HLA-A*24, the Peptide exchange result was “++++ (>=75% = ++++)”.
As to “278 (RYISDQLFTNF; listed as Homo sapiens) [compound 278]”, in the assay with HLA-A*24, the Peptide exchange result is reported as “++++ (>=75% = ++++)”.
Still for that read-out and setting: then “280 (RYPDNLKHLYL; listed as Homo sapiens) [compound 280]”, with “++++ (>=75% = ++++)”.
The same measure, in the same setting: then “282 (KFVDSTFYL; listed as Homo sapiens) [compound 282]”, with “++++ (>=75% = ++++)”.
Regarding “285 (HYPPVQVLF; listed as Homo sapiens) [compound 285]”, in the assay on CD8+ T cells, the “Wells positive [%]” value is given as “+ (<20% = +)”.
With “289 (KYPVEWAKF; listed as Homo sapiens) [compound 289]”, the Peptide exchange entry in the assay with HLA-A*24 is “++++ (>=75% = ++++)”.
For the substance “290 (KIVDFSYSV; listed as Homo sapiens) [compound 290]”, in the assay with CD8+ T cells, the “Wells (in vitro immunogenicity of HLA class I peptides)” value is reported as “++ (20%-49% = ++)”.
Same read-out and setting: then “291 (KLDETGNSL; listed as Homo sapiens) [compound 291]”, with “+ (<20% = +)”.
The same measure, in the same setting: as for “292 (GMMTAILGV; listed as Homo sapiens) [compound 292]”, the entry is “+ (<20% = +)”.
On the same count and under the same terms, then “293 (FLVDGSWSI; listed as Homo sapiens) [compound 293]”, with “+ (<20% = +)”.
As to “295 (YYPGVILGF; listed as Homo sapiens) [compound 295]”, in the assay with CD8+ T cells, the “Wells (in vitro immunogenicity of HLA class I peptides)” value was “++ (20%-49% = ++)”.
As to “296 (TYVDSSHTI; listed as Homo sapiens) [compound 296]”, the “Wells (in vitro immunogenicity of HLA class I peptides)” value with CD8+ T cells is on record as “+ (<20% = +)”.
Turning to “297 (PFLQASPHF; listed as Homo sapiens) [compound 297]”, the “Wells (in vitro immunogenicity of HLA class I peptides)” value in the assay on CD8+ T cells is “++ (20%-49% = ++)”.
Same read-out and setting: then “298 (RYLEGTSCI; listed as Homo sapiens) [compound 298]”, with “+ (<20% = +)”; and “300 (AYVLRLETL; listed as Homo sapiens) [compound 300]”, with “+ (<20% = +)”; and “301 (AYKPGALTF; listed as Homo sapiens) [compound 301]”, with “+ (<20% = +)”.
